Data from US20230416205A1, “COMPOUNDS, COMPOSITIONS, AND METHODS” (Denali Therapeutics Inc, priority 2020, published 2023).
Read-outs that look alike come from different tables or passages of the source.

Tested on: NLRP3
Test: IL-1β secretion assay in PMA-differentiated, LPS/nigericin-stimulated THP-1 cells (384-well, ELISA read-out)
Type: cell-based, human
In short: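 THP-1 cells differentiated with PMA (5 ng/mL, 40 h), primed in serum-free medium with 25 ng/mL LPS for 2 h, treated with compounds 1 h (0.5% DMSO), then stimulated with nigericin for 2 h at 37 °C. Supernatant IL-1β measured by ELISA; responses normalized to LPS+5 μM nigericin and LPS-only controls.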

[1] = IL-1β secretion, PMA-differentiated THP-1 cells, LPS then nigericin stimulation, ELISA read at 450 nm, read-out: Activity
[2] = Table 4, IL-1β secretion, LPS/nigericin-stimulated THP-1 cells, read-out: IC50
[3] = Homo sapiens, THP-1, IL-1β secretion, PMA-differentiated THP-1 cells, LPS then nigericin stimulation, ELISA read at 450 nm, read-out: Activity
[4] = Homo sapiens, THP-1, Table 4, IL-1β secretion, LPS/nigericin-stimulated THP-1 cells, read-out: IC50

`O=C(CN1CC(C(F)(F)F)c2c(ccc(Br)c2F)C1=O)Nc1ncc(F)cn1` (single isomer, unassigned) [Example 298, 2-[6-bromo-5-fluoro-1-oxo-4-(trifluoromethyl)-3,4-dihydroisoquinolin-2-yl]-N-(5-fluoropyrimidin-2-yl)acetamide] showed an IC50 [1] of under 10000 nM and an IC50 [2] of 367 nM.
Compound `O=C(CN1CC(C(F)(F)F)c2cc(Br)ccc2C1=O)Nc1ncc(F)cn1` (single isomer, unassigned) [Example 299, 2-[6-bromo-1-oxo-4-(trifluoromethyl)-3,4-dihydroisoquinolin-2-yl]-N-(5-fluoropyrimidin-2-yl)acetamide] has an IC50 [3] of under 10000 nM and an IC50 [2] of 96 nM.
`O=C(CN1CC(C(F)(F)F)c2cc(Br)ccc2C1=O)Nc1ncc(F)cn1` (single isomer, unassigned) [Example 300, 2-[6-bromo-1-oxo-4-(trifluoromethyl)-3,4-dihydroisoquinolin-2-yl]-N-(5-fluoropyrimidin-2-yl)acetamide] showed an IC50 [1] of under 10000 nM and an IC50 [2] of 3430 nM.
For `O=C(CN1CC2(CC2)c2c(ccc(C3C[C@H]3F)c2F)C1=O)Nc1ncc(F)cn1` (single isomer, unassigned) [Example 303, 2-[5-fluoro-6-[(1r,2r)-2-fluorocyclopropyl]-1-oxospiro[3H-isoquinoline-4-1′-cyclopropane]-2-yl]-N-(5-fluoropyrimidin-2-yl)acetamide], the IC50 [4] was 1440 nM.
In the case of `O=C(CN1CC2(CC2)c2c(ccc(C3C[C@H]3F)c2F)C1=O)Nc1ncc(F)cn1` (single isomer, unassigned) [Example 304, 2-[5-fluoro-6-[(1r,2r)-2-fluorocyclopropyl]-1-oxospiro[3H-isoquinoline-4-1′-cyclopropane]-2-yl]-N-(5-fluoropyrimidin-2-yl)acetamide], the IC50 [2] is reported as 2560 nM.
`O=C(CN1CC2(CC2)c2c(ccc(C3C[C@@H]3F)c2F)C1=O)Nc1ncc(F)cn1` (single isomer, unassigned) [Example 305, 2-[5-fluoro-6-[(1r,2s)-2-fluorocyclopropyl]-1-oxospiro[3H-isoquinoline-4,1′-cyclopropane]-2-yl]-N-(5-fluoropyrimidin-2-yl)acetamide] was tested, and the IC50 [4] was 662 nM.
In the case of `O=C(CN1CC2(CC2)c2c(ccc(C3C[C@@H]3F)c2F)C1=O)Nc1ncc(F)cn1` (single isomer, unassigned) [Example 306, 2-[5-fluoro-6-[(1r,2s)-2-fluorocyclopropyl]-1-oxospiro[3H-isoquinoline-4,1′-cyclopropane]-2-yl]-N-(5-fluoropyrimidin-2-yl)acetamide], the IC50 [2] is reported as 577 nM.
For `O=C(CN1CC2(CC2(F)F)c2c(ccc(Br)c2F)C1=O)Nc1ncc(Cl)cn1` (single isomer, unassigned) [Example 317, 2-[6-bromo-1′,1′,5-trifluoro-1-oxospiro[3H-isoquinoline-4,2′-cyclopropane]-2-yl]-N-(5-chloropyrimidin-2-yl)acetamide], the IC50 [2] was 8510 nM.
For `O=C(CN1CC2(CC2(F)F)c2c(ccc(Br)c2F)C1=O)Nc1ncc(Cl)cn1` (single isomer, unassigned) [Example 318, 2-[6-bromo-1′,1′,5-trifluoro-1-oxospiro[3H-isoquinoline-4,2′-cyclopropane]-2-yl]-N-(5-chloropyrimidin-2-yl)acetamide], the IC50 [2] was 8 nM.
`N#Cc1cnc(NC(=O)CN2CC3(CC3(F)F)c3c(ccc(Br)c3F)C2=O)nc1` (single isomer, unassigned) [Example 319, 2-[6-bromo-1′,1′,5-trifluoro-1-oxospiro[3H-isoquinoline-4,2′-cyclopropane]-2-yl]-N-(5-cyanopyrimidin-2-yl)acetamide] gave an IC50 [2] of 3050 nM.
Compound `N#Cc1cnc(NC(=O)CN2CC3(CC3(F)F)c3c(ccc(Br)c3F)C2=O)nc1` (single isomer, unassigned) [Example 320, 2-[6-bromo-1′,1′,5-trifluoro-1-oxospiro[3H-isoquinoline-4,2′-cyclopropane]-2-yl]-N-(5-cyanopyrimidin-2-yl)acetamide] has an IC50 [2] of 14 nM.
`O=C(CN1CC2(CC2(F)F)c2c(ccc(Br)c2F)C1=O)Nc1ncc(C(F)(F)F)cn1` (single isomer, unassigned) [Example 323, 2-[6-bromo-1′,1′,5-trifluoro-1-oxospiro[3H-isoquinoline-4,2′-cyclopropane]-2-yl]-N-[5-(trifluoromethyl)pyrimidin-2-yl]acetamide] showed an IC50 [2] of over 10000 nM.
`O=C(CN1CC2(CC2(F)F)c2c(ccc(Br)c2F)C1=O)Nc1ncc(C(F)(F)F)cn1` (single isomer, unassigned) [Example 324, 2-[6-bromo-1′,1′,5-trifluoro-1-oxospiro[3H-isoquinoline-4,2′-cyclopropane]-2-yl]-N-[5-(trifluoromethyl)pyrimidin-2-yl]acetamide] gave an IC50 [2] of 27 nM.
Work on `CC1(O)CC(NC(=O)CN2CC3(CC3(F)F)c3c(ccc(Br)c3F)C2=O)C1` (single isomer, unassigned) [Example 325, N-(3-cis-hydroxy-3-methylcyclobutyl)-2-[6-bromo-1′,1′,5-trifluoro-1-oxospiro[3H-isoquinoline-4,2′-cyclopropane]-2-yl]acetamide] yielded an IC50 [2] of over 1000 nM.
`CC1(O)CC(NC(=O)CN2CC3(CC3(F)F)c3c(ccc(Br)c3F)C2=O)C1` (single isomer, unassigned) [Example 326, N-(3-cis-hydroxy-3-methylcyclobutyl)-2-[6-bromo-1′,1′,5-trifluoro-1-oxospiro[3H-isoquinoline-4,2′-cyclopropane]-2-yl]acetamide] gave an IC50 [2] of 13 nM.
Work on `CC1(O)CC(NC(=O)CN2C[C@@]3(C[C@@H]3F)c3cc(C(F)(F)F)ccc3C2=O)C1` (single isomer, unassigned) [Example 327, N-(3-cis-hydroxy-3-methylcyclobutyl)-2-[(2′s,4r)-2′-fluoro-1-oxo-6-(trifluoromethyl)spiro[3H-isoquinoline-4,1′-cyclopropane]-2-yl]acetamide] yielded an IC50 [2] of over 1000 nM.
Compound `CC1(O)CC(NC(=O)CN2C[C@@]3(C[C@@H]3F)c3cc(C(F)(F)F)ccc3C2=O)C1` (single isomer, unassigned) [Example 328, N-(3-cis-hydroxy-3-methylcyclobutyl)-2-[(2′s,4r)-2′-fluoro-1-oxo-6-(trifluoromethyl)spiro[3H-isoquinoline-4,1′-cyclopropane]-2-yl]acetamide] has an IC50 [2] of 67 nM.
`O=C(CN1CC2(CC2)c2cc(Br)ccc2C1=O)N[C@@H]1C[C@H]2CC[C@@H]1O2` (stereo in doubt) [Example 17, 2-(6-bromo-1-oxospiro[3H-isoquinoline-4,1′-cyclopropane]-2-yl)-N-[(1S,2R,4R)-7-oxabicyclo[2.2.1]heptan-2-yl]acetamide] was tested, and the IC50 [3] was under 10000 nM and the IC50 [4] was 4190 nM.
`CCC1CN(CC(=O)Nc2ncncc2F)C(=O)c2ccc(Br)cc21` (stereo not drawn) [Example 1, 2-(6-bromo-4-ethyl-1-oxo-3,4-dihydroisoquinolin-2(1H)-yl)-N-(5-fluoropyrimidin-4-yl)acetamide] was tested, and the IC50 [3] was under 10000 nM and the IC50 [4] was 1380 nM.
With `N#Cc1cnc(NC(=O)CN2CC3(CC3)c3cc(Br)ccc3C2=O)nc1` [Example 3] the IC50 [3] was under 10000 nM and the IC50 [4] was 47 nM.
For `O=C(CN1CC2(CC2)c2cc(Br)ccc2C1=O)Nc1ncc(Cl)cn1` [Example 4], the IC50 [3] was under 10000 nM and the IC50 [4] was 39 nM.
Work on `O=C(CN1CC2(CC2)c2cc(Br)ccc2C1=O)Nc1ncccn1` [Example 5] yielded an IC50 [3] of under 10000 nM and an IC50 [4] of 216 nM.
`O=C(CN1CC2(CC2)c2cc(Br)ccc2C1=O)Nc1ncncc1F` [Example 6] gave an IC50 [3] of under 10000 nM and an IC50 [4] of 141 nM.
`N#Cc1cnc(NC(=O)CN2CC3(CC3)c3cc(Br)ccc3C2=O)c(F)c1` [Example 7] gave an IC50 [3] of under 10000 nM and an IC50 [4] of 350 nM.
`O=C(CN1CC2(CC2)c2cc(Br)ccc2C1=O)Nc1ncc(Cl)cc1F` [Example 8] was tested, and the IC50 [3] was under 10000 nM and the IC50 [4] was 216 nM.
`O=C(CN1CC2(CC2)c2cc(Br)ccc2C1=O)Nc1ncc(C(F)(F)F)cc1F` [Example 9] was tested, and the IC50 [3] was under 10000 nM and the IC50 [4] was 400 nM.
Work on `O=C(CN1CC2(CC2)c2cc(Br)ccc2C1=O)Nc1ccc(Cl)nn1` [Example 10] yielded an IC50 [3] of under 10000 nM and an IC50 [4] of 1300 nM.
In the case of `O=C(CN1CC2(CC2)c2cc(Br)ccc2C1=O)Nc1ccncc1F` [Example 11], the IC50 [3] is reported as under 10000 nM and the IC50 [4] is reported as 531 nM.
Compound `O=C(CN1CC2(CC2)c2cc(Br)ccc2C1=O)Nc1ncc(F)cc1F` [Example 12] has an IC50 [3] of under 10000 nM and an IC50 [4] of 588 nM.
For `O=C(CN1CC2(CC2)c2cc(Br)ccc2C1=O)NC12CC(C(F)(F)F)(C1)C2` [Example 13, 2-(6-bromo-1-oxospiro[3H-isoquinoline-4,1′-cyclopropane]-2-yl)-N-[3-(trifluoromethyl)-1-bicyclo[1.1.1]pentanyl]acetamide], the IC50 [3] was under 10000 nM and the IC50 [4] was 1750 nM.
`N#CC12CC(NC(=O)CN3CC4(CC4)c4cc(Br)ccc4C3=O)(C1)C2` [Example 14, 2-(6-bromo-1-oxospiro[3H-isoquinoline-4,1′-cyclopropane]-2-yl)-N-(3-cyano-1-bicyclo[1.1.1]pentanyl)acetamide] was tested, and the IC50 [3] was under 10000 nM and the IC50 [4] was 3120 nM.
`O=C(CN1CC2(CC2)c2cc(Br)ccc2C1=O)NC1CCC(F)(F)CC1` [Example 15, 2-(6-bromo-1-oxospiro[3H-isoquinoline-4,1′-cyclopropane]-2-yl)-N-(4,4-difluorocyclohexyl)acetamide] gave an IC50 [3] of under 10000 nM and an IC50 [4] of 3190 nM.
For `O=C(CN1CC2(CC2)c2cc(Br)ccc2C1=O)N[C@@H]1C[C@@H]2CC[C@H]1O2` [Example 16, 2-(6-bromo-1-oxospiro[3H-isoquinoline-4,1′-cyclopropane]-2-yl)-N-[(1R,2R,4S)-7-oxabicyclo[2.2.1]heptan-2-yl]acetamide], the IC50 [3] was under 10000 nM and the IC50 [4] was 9830 nM.
With `CCN1CCCC(NC(=O)CN2CC3(CC3)c3cc(Br)ccc3C2=O)C1` (stereo not drawn) [Example 18, 2-(6-bromo-1-oxospiro[3H-isoquinoline-4,1′-cyclopropane]-2-yl)-N-(1-ethylpiperidin-3-yl)acetamide] the IC50 [3] was under 10000 nM and the IC50 [4] was 1450 nM.
